Source: patent US20010041745A1, “Methods for increasing levels of acetylcholine” (priority 1999, published 2001)
Counter-ions that a name gives are not always drawn.

Experiments:
[1] = test system: choline acetyltransferase (ChAT); assay: ChAT activity in hippocampus and frontal cortex homogenates of ovariectomized (OVX) rats, radio-labelled assay of acetylcholine bio-synthesis; format: in vivo, female Sprague-Dawley rats; conditions: dosed daily s.c. or oral gavage for 10 days; for levels of ChAT, difference from the sham controls: same doses as E1; for levels of ChAT versus the OVX controls: tamoxifen 3 or 10 mg/kg/day, raloxifene hydrochloride 3 mg/kg/day, estradiol benzoate 0.03 or 0.3 mg/kg/day
Experimental: Forty female Sprague-Dawley rats (weight range of 300 to 325 g, six months old) are obtained from Harlan. The animals are either bilaterally ovariectomized (OVX) or exposed to a Sham surgical procedure, and then shipped after about one week. Upon arrival, they are housed in metal hanging cages in groups of 3 or 4 per cage and have ad libitum access to food and water for one week. Room temperature is maintained at 22.20±1.7° C. with a minimum relative humidity of 40%. The photoperiod in the room is 12 hours light and 12 hours dark.
The animals are dosed daily by subcutaneous injection or oral gavage with either tamoxifen, at 3 mg/kg/day or 10 mg/kg/day in a vehicle containing 10% cyclodextrin, raloxifene hydrochloride, at 3 mg/kg/day in a vehicle containing 10% cyclodextrin, estradiol benzoate at 0.03 or 0.3 mg/kg/day, or vehicle control. Animals were treated for 10 days. There are twenty animals per each dosing regimen. At the appropriate time intervals, the animals are sacrificed and their brains dissected. The particular portions of the brains are homogenized and assayed. Homogenates from the hippocampus and frontal cortex were processed and determination of ChAT activity was made by a radio-labelled assay of the bio-synthesis of acetylcholine. This procedure may be found in Schoepp et al., J. Neural Transmiss., 78:183-193, 1989, the teachings of which are incorporated by reference.

[2] = Prophylactic use: cognitive and memory function by standard tests in peri- or post-menopausal women; format: in vivo, human; conditions: 20 mg/day, oral, 1-5 years
Experimental: The methods of the present invention may also be employed in a prophylactic modality. […] Following the establishment of this baseline, the women are administered tamoxifen at 20 mg/day, via the oral route, for a period 1-5 years.

[3] = Amelioration of Alzheimer's disease in post-menopausal women after chronic administration; format: in vivo, human; conditions: post-menopausal women with Alzheimer's disease; 20 mg per day, oral, 2-12 months
Text: Thus, the current invention provides methods for the treatment and prophylaxis of syndromes related to the loss of memory, learning, and cognitive function, often seen in women who are estrogen deprived, especially post-menopausal women. An example of such a syndrome is senile dementia of the Alzheimer's type. Beneficial effects, such as a decrease in memory loss, associated with administration of a compound of this invention become apparent after chronic administration.

ChAT = conditions: rats; literature (Luine et al. 1980, Luine 1985, Singh et al. 1994); cited from earlier work

Compound | levels of ChAT, difference from the sham controls [1] | levels of ChAT versus the OVX controls [1] | cognitive and memory functions relative to matched patients given placebo [2] | effect on Alzheimer's disease [3] | level of acetylcholine / ChAT in the hippocampus (ChAT)
C[C@]12CC[C@@H]3c4ccc(OC(=O)c5ccccc5)cc4CC[C@H]3[C@@H]1CC[C@@H]2O [estradiol benzoate] | insignificant difference | significantly (p<0.01) increased levels of ChAT |  |  | 
CC/C(=C(\c1ccccc1)c1ccc(OCCN(C)C)cc1)c1ccccc1 [tamoxifen] | insignificant difference | significantly (p<0.05) increased levels of ChAT | decrease in loss of these functions | amelioration of their disease | 
O=C(c1ccc(OCCN2CCCCC2)cc1)c1c(-c2ccc(O)cc2)sc2cc(O)ccc12 [raloxifene hydrochloride] | insignificant difference | significantly (p<0.01) increased levels of ChAT |  |  | 
estrogen |  |  |  |  | increases the level of acetylcholine by up-regulating ChAT
